For experiment [1], the system named is HEK293. Nature of the experiment: Cytotoxicity against HEK293 cells expressing ABCG2-R-482 in presence of methotrexate. Format: functional, cell-based. To be noted: Homo sapiens.
For experiment [2], the target named is T1, Broad substrate specificity ATP-binding cassette transporter ABCG2 (Homo sapiens, UniProt Q9UNQ0).
T1 sequence (Q9UNQ0 whole entry): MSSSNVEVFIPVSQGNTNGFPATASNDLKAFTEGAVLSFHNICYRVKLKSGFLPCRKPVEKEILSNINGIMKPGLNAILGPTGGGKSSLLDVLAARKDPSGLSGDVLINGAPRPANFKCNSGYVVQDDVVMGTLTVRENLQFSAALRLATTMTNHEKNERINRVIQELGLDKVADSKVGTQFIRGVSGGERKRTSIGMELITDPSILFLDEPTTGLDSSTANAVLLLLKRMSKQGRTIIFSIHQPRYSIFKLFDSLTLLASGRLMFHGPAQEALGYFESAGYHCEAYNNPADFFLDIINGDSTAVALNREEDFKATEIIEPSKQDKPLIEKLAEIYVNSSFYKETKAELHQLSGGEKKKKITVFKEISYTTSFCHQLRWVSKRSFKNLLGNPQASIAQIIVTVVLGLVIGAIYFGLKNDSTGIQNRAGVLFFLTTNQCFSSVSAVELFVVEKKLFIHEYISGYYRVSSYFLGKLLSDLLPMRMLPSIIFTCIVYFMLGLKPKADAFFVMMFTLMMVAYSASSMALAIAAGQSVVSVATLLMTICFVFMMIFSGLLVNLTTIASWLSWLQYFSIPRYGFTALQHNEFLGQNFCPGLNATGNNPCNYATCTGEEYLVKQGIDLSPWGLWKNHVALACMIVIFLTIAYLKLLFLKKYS
Nature of the experiment: Inhibition of ABCG2 (unknown origin) in Sf9 membrane vesicles using [3H] methotrexate as substrate. Format: cell membranes.

The nature of experiment [3]: Reversal of mitoxantrone resistance in human T8 cells. The class given is functional. The settings on record: T8 cell.
The subject of a further experiment is MCF7. Nature of the experiment: Cytotoxicity against human MCF7 cells assessed as increase in cytotoxic drug half inhibitory concentration. Format: functional, cell-based.
Experiment [4] concerns the target T1, Broad substrate specificity ATP-binding cassette transporter ABCG2. Nature of the experiment: Inhibition of ABCG2 (unknown origin) overexpressing in dog MDCK-II-BCRP cells measured after 30 mins by flow cytometric analysis. Format: cell-based.
Experiment [5] has the same target. Put plainly: Inhibition of ABCG2 (unknown origin).
Experiment [6] deals with HEK293. Put plainly: Cytotoxicity against HEK293 cells expressing ABCG2-482-R in presence of methotrexate. The class given is functional, cell-based. To be noted: Homo sapiens.
The subject of experiment [7] is HEK293. Nature of the experiment: Cytotoxicity against HEK293 cells expressing ABCG2-482-T7 in presence of methotrexate. The class given is functional, cell-based. The settings on record: Homo sapiens.
Experiment [8] deals with HEK293. Put plainly: Cytotoxicity against HEK293 cells expressing ABCG2 in presence of methotrexate. The settings on record: Homo sapiens. The class given is functional, cell-based.
The subject of the next experiment is S1-M1-80. Put plainly: Cytotoxicity against human S1M180 cells in presence of topotecan. Format: functional, cell-based.
In experiment [9] the test system is HEK293. Nature of the experiment: Cytotoxicity against HEK293 cells expressing ABCG2-R-482 wildtype assessed as decrease in mitoxantrone half inhibitory concentration. Format: functional, cell-based. To be noted: Homo sapiens.
Experiment [10] relates to HEK293. Put plainly: Cytotoxicity against HEK293 cells expressing ABCG2-R-482 mutant assessed as decrease in mitoxantrone half inhibitory concentration. To be noted: Homo sapiens. Format: functional, cell-based.

Usually IC50 stands for the concentration at which inhibition is half-maximal. What is called EC90 is the concentration at which the effect reaches the 90% level.

Take `Nc1ncnc2c1c(-c1ccc(Oc3ccccc3)cc1)nn2C1CCCC1`: the IC50 in the experiment with HEK293 [1] was 57 nM.
In experiment [2], `C=CC(O)C#CC#CC/C=C\CCCCCCC` (stereo not given) registered an IC50 of 41.7 µM.
On the same count and under the same terms, under `C=CC(O)C#CC#CC(O)/C=C\CCCCCCC` (stereo not given) stands 29.7 µM.
Take `COc1ccc2c3c([nH]c2c1)[C@@H](CC(C)C)N1C(=O)[C@@H](CCC(=O)OC(C)(C)C)NC(=O)[C@@H]1C3`: in [3], the EC90 turned out to be 23 nM.
The same measure, in the same setting: under `CC(C)C[C@@H]1c2[nH]c3ccccc3c2C[C@H]2C(=O)N[C@H](CCCCNC(=O)OC(C)(C)C)C(=O)N12` stands 190 nM.
In the case of `COc1ccc2c3c([nH]c2c1)[C@@H](C=C(C)C)N1C(=O)[C@@H]2CCCN2C(=O)[C@@H]1C3`, the IC50 in the experiment on MCF7 worked out at 1000 nM.
`COc1ccc(-c2c3occc3c(OC[C@H]3OC3(C)C)c3ccc(=O)oc23)cc1OC` had an IC50 in experiment [4] of 43.1 µM.
Consider `CC(C)C[C@@H]1c2[nH]c3ccccc3c2C[C@H]2C(=O)N[C@H](CCC(=O)OC(C)(C)C)C(=O)N12`, for which, in [3], the EC90 came out at 85 nM.
With `Cn1cc(-c2cc3c(N4CCN(c5ncc([C@@](C)(N)c6ccc(F)cc6)cn5)CC4)ncnn3c2)cn1` [AVAPRITINIB], the IC50 in experiment [5] amounted to 1.5 nM.
Consider `COc1cc2nccc(Oc3ccc(NC(=O)C4(C(=O)Nc5ccc(F)cc5)CC4)cc3)c2cc1OC` [CABOZANTINIB], for which the IC50 with HEK293 [6] stood at 27 nM; in the experiment with HEK293 [7], 34 nM.
Regarding `COc1cc2ncnc(Nc3ccc(F)c(Cl)c3)c2cc1NC(=O)/C=C/CN1CCCCC1` [DACOMITINIB ANHYDROUS], the IC50 with HEK293 [8] was 185 nM.
For the compound `COc1cc2c(cc1OC)CN(CCc1ccc(NC(=O)c3cccc4c(=O)c5cccc(OC)c5[nH]c34)cc1)CC2` [ELACRIDAR], the EC90 in experiment [3] was determined as 51 nM.
Regarding `Cc1cn(-c2cc(NC(=O)c3ccc(C)c(Nc4nccc(-c5cccnc5)n4)c3)cc(C(F)(F)F)c2)cn1` [NILOTINIB], the IC50 was 128 nM with HEK293 [6] and 147 nM in the experiment with HEK293 [7].
With `C=CC(=O)Nc1cccc(Nc2nc(Nc3ccc(N4CCN(C(C)=O)CC4)cc3OC)ncc2C(F)(F)F)c1` [ROCILETINIB], the figures for the IC50 in the experiment with HEK293 [6] and in the experiment on HEK293 [7] were 11.9 nM and 7.2 nM, respectively.
`COc1cc2/c(=N/c3ccc(Br)cc3F)nc[nH]c2cc1OCC1CCN(C)CC1` [VANDETANIB]: the IC50 with S1-M1-80 was 1240 nM.
As to `Cc1[nH]c(/C=C2\C(=O)Nc3ccc(F)cc32)c(C)c1C(=O)N[C@H]1CCN(C(=O)N(C)C)C1` [VOROLANIB], the results for the IC50 with HEK293 [9] and with HEK293 [10] were 15.5 nM and 58 nM, respectively.

Source of the values: ChEMBL document CHEMBL5214929, “Updated chemical scaffolds of ABCG2 inhibitors and their structure-inhibition relationships for future development” (Eur J Med Chem, 2022).
